Assay results as given in patent US12344623B2, “Thiazolopyridine derivatives as adenosine receptor antagonists” (Merck Patent GmbH, priority 2019, dated 2025).

Legend:
[1] = Pharmacokinetic properties in mouse after single intravenous and oral administration; type: in vivo
Experimental: The objective of the study was to obtain information on the pharmacokinetic properties of the compounds of the present invention in female Wistar rats/mice following single intravenous and oral administration.
Female Wistar rats/mice (n=6) received either a single intravenous (bolus) injection or an oral administration (by gavage) of the tested compound. Doses of 0.2 and 10 mg/kg (per compound) were given intravenously and per os, respectively, as a solution in DMSO (0.2%)/PEG 200 (40%)/water for iv administration and as a suspension in Methocel (0.5%)/Tween 20 (0.25%) in water for oral dosing. Consecutive blood samples were taken sub-lingually under isoflurane inhalation from 3 animals per route of administration after 0.1 (only iv), 0.25 (only po), 0.5, 1, 2, 4, 6 and 24 h and were further processed to obtain plasma. Also, urine and feces samples of 3 rats per route of administration were collected over the time interval from 0-24 h and were pooled for analysis.
The concentrations of the compounds in plasma, feces were quantified using an UPLC method with tandem mass spectrometric detection (LC-MS/MS) previously developed at the ‘Institute of Drug Metabolism and Pharmacokinetics’. The LCMS/MS system consisted of a Waters Acquity UPLC coupled to an AB Sciex mass spectrometer API 5500 Q-trap. The UPLC separation was carried out on a reversed phase column (HSS T3, […], 2.1×50 mm) using a mobile phase gradient with 0.1% formic acid and acetonitrile as eluents. The detection of the compounds was performed using multiple reaction monitoring in the positive ionization mode. Plasma samples were spiked with internal standard (20 μl) and the analyte was extracted from the matrix using tertiary-butyl methyl ether (tBME). The organic phase was evaporated to dryness under a stream of nitrogen. The residue was dissolved in acetonitrile/0.1% formic acid for LC-MS/MS analysis. Feces samples were homogenized with 4-times their volume of an ethanol/water mixture (4:1, v/v). Aliquots of the aqueous-ethanolic extracts were spiked with internal standard, diluted with acetonitrile/water (1:1, v/v) and directly injected into the LC-MS/MS system.
Pharmacokinetic parameters Cmax and tmax were taken from the observed data. […] AUC values were calculated by non-compartmental analysis using the linear up/log down method. Numerical data for mean plasma concentrations and derived pharmacokinetic parameters were rounded to 3 significant digits for presentation.

[2] = system: mouse Pan T cells; experiment: mTcell assay, IL-2, rescue of cytokine secretion, agonist NECA; type: cell-based; conditions: mouse Pan T cells, CD3/CD28 activated, NECA 1 μM, IL-2 rescue, 24 h
Excerpt: Adenosine (Ado) in tumor microenvironment can inhibit T cell activity by signaling through A2A receptors and suppress cytokine secretion by T cells. […] Potential A2A antagonists or A2A/A2B dual antagonists can rescue T cells from this inhibition. Herein, we describe the in vitro system we established using Pan T cells from mouse spleens to screen potential A2A antagonists or A2A/A2B dual antagonists for their activity. The method described involves the use of CD3/CD28 pre-coated beads to stimulate Pan T cells purified from mouse splenocytes, combined with the addition of A2A agonist along with potential A2A or A2A/A2B dual antagonists to evaluate potentiation of T cell cytokine production.
Briefly, mouse Pan T cells are purified from spleens of BALB/c mice using Pan T cell isolation kit Mouse II (MACS Miltenyi biotech Cat # Order no. 130-095-130) according to manufacturer's protocol. The purified T cells are seeded in Nunc™ 96-Well Polystyrene Round Bottom Microwell Plates in RPMI medium with 10% heat inactivated fetal bovine serum. The cells are rested at 37° C. for 1 h before activating with CD3/CD28 pre-coated beads (Dynabeads™ Mouse T-Activator CD3/CD28; Cat #11456D). After 30 min the cells are treated with varying doses of test antagonist(s). […] After 24 h incubation IL-2 levels in the supernatants are measured by ELISAs according to manufacturer's protocol (R&D systems Cat #DY402 (IL-2)). Once the concentrations are calculated, the difference of cytokine concentration of DMSO control and agonist alone control is calculated and the percentage of rescue by each concentration of antagonist is calculated by using Microsoft Excel. These percentages of cytokine rescue in a dose dependent manner of antagonist is plotted in GraphPad Prism software and IC50 is calculated.

[3] = target: human A2A receptor (Homo sapiens, UniProt P29274); experiment: Human T cells, endogenous A2A receptor, cAMP, agonist NECA; type: cell-based; conditions: read-out: hTcell data, cAMP, IC50
Chain of human A2A receptor (P29274 whole entry): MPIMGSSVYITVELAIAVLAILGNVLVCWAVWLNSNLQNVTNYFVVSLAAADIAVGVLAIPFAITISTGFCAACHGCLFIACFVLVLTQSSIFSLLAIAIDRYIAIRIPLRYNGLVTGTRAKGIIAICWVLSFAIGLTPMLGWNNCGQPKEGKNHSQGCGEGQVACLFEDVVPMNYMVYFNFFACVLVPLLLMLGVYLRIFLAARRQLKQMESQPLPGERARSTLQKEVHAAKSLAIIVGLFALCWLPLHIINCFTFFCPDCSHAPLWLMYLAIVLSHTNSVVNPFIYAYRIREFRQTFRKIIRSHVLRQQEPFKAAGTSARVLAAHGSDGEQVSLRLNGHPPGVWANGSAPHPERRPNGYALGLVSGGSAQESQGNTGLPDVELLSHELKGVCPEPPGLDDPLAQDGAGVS
Method in brief: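 Pan T cells isolated from fresh human blood PBMC, endogenously expressing Gs-coupled A2A, treated with compounds. Cellular cAMP measured by HTRF after 1 h; data normalized to inhibitor control and DMSO neutral control, then curve-fitted.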

[4] = system: human T cells; experiment: hTcell data, IL-2 (human T cells, IL-2 readout; method not given); type: cell-based; conditions: compounds of the present invention
[5] = target: T1, human A3 receptor (Homo sapiens, UniProt P0DMS8); experiment: Functional A3 receptor activity, recombinant CHO cells, cAMP (HTRF), forskolin, agonist IB-MECA; type: cell-based; conditions: recombinant CHO cells, forskolin, agonist IB-MECA; read-out: Functional A3 receptor activity, CHO, cAMP, IC50
T1 construct: expressed in transfected cells; host or cells: CHO
T1 sequence (P0DMS8 1-318): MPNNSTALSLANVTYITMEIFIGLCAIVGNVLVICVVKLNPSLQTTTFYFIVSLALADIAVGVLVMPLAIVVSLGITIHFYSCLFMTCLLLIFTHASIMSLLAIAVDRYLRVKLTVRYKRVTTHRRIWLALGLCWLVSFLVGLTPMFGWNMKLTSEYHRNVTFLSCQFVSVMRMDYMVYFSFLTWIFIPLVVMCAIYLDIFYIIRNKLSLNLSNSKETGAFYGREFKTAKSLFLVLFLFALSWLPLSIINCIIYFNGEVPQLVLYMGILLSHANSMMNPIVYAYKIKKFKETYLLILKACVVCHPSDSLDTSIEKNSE
Method in brief: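 Recombinant CHO cells expressing A1 or A3 receptor (Gi-coupled) were stimulated with forskolin together with test compound and agonist (CPA for A1, IB-MECA for A3), incubated 30 min, then cellular cAMP was read by HTRF. Data were normalized to inhibitor control and DMSO neutral control, then curve-fitted.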

Feces iv ([1]; @0.2 (mg/kg), % of dose excreted in feces): 22@0.2% | clearance ([1]; female, plasma, 0.2 mg/kg): 77.5 mL/min/kg | Cmax ([1]; female, plasma, 0.2 mg/kg, dose-normalized to 1 mg/kg): 500 ng/mL | Vd ([1]; female, plasma, 0.2 mg/kg, read-out: Vss): 3.16 L/kg | half-life ([1]; female, plasma, 0.2 mg/kg, read-out: t½ (converted)): 54.6 min | IC50 [2]: < 10 nM | IC50 [3]: < 10 nM | IC50 [4]: < 10 nM | IC50 [5]: > 1000 nM
SMILES: COc1ncc(C2=CCOCC2)c2sc(NC(=O)N3CC[C@@]4(CCCOC4)C3)nc12 [Compound 25, (S)-7-Oxa-2-aza-spiro[4.5]decane-2-carboxylic acid [7-(3,6-dihydro-2H-pyran-4-yl)-4-methoxy-thiazolo[4,5-c]pyridin-2-yl]-amide]
